Marks after values point to notes of the source that are not given here.

The conditions of data set [1]: reported in the literature; cited from earlier work.
The next data set has as its system rat. As to the kind of experiment: Rotarod Test in the Rat. Particulars: for Number of Rats Falling: ten rats per group. It is filed as in vivo. As for the experimental part:
This is a test of neurological deficits using the method described by Dunham et al., J. Am. Pharm. Assoc. 46: 208-09 (1957). Rats or mice are placed on a rod rotating at a speed of eight turns per minute. The number of animals which drop off the rod before three minutes is counted and the drop-off times are recorded (maximum: 180 seconds). Ten rats are studied per group and the test is performed blind. The test compound is administered i.p. 60 minutes prior to testing. Diazepam, a benzodiazepine, is administered at 8 mg/kg, i.p., as the reference substance. A control group administered the vehicle is also included in the study.
For orientation: In the rotarod test animals must keep their balance on a rotating rod.

For data set [2] the following is noted: in vivo; cited from earlier work.
Data set [3] concerns Frings audiogenic seizure-susceptible mouse. As to the kind of experiment: Frings audiogenic seizure-susceptible mouse model of epilepsy. The format is in vivo. The following applies: for anticonvulsant activity when administered orally: oral. An excerpt:
One useful model is provided by the Frings audiogenic seizure-susceptible mouse, a model of reflex epilepsy. At the time of testing, individual mice are placed into a round Plexiglas chamber and exposed to a sound stimulus of 110 decibels, 11 kHz, for 20 seconds. Animals not displaying tonic hindlimb extensions were considered protected. In addition, the seizure score for each mouse can be recorded as: (1) running for less than 10 seconds; (2) running for greater than 10 seconds; (3) clonic activity of limbs and/or vibrissae; (4) forelimb extension/hindlimb flexion; and (5) hindlimb extension.
(§1) The average seizure score can be calculated for each group of mice employed in the dose-response study. At each dose, mice are also tested on a rotarod for testing of motor impairment (toxicity). Testing for motor impairment on the rotarod involves placing a mouse for a three-minute trial period on a one-inch diameter rod rotating at six revolutions per minute. If the mouse falls off of the rotating rod three times within the three-minute time period, it is considered a toxic response.

The next data set deals with Frings mouse. As to the kind of experiment: Rotarod motor impairment (toxicity) in the Frings mouse. It is filed as in vivo. Particulars: for Number Showing Toxicity of Four Mice Tested at 30 minutes / Number Showing Toxicity of Four Mice Tested at 120 minutes: Table 4; for Number Showing Toxicity of Eight Mice Tested at 30 minutes / Number Showing Toxicity of Eight Mice Tested at 120 minutes: Table 5. As for the experimental part:
as §1

[4] abbreviates: 4 mg/kg i.p. 60 minutes before test.
[5] abbreviates: 8 mg/kg i.p. 60 minutes before test.

As to `CC(C)CC(=O)O` [Isovaleric acid, isovaleric acid], in data set [1], the anticonvulsant activity result was “inactive as an anticonvulsant”.

As to `CN1C(=O)CN=C(c2ccccc2)c2cc(Cl)ccc21` [Diazepam, diazepam], in the data set on rat (setting [4]), the “Drop-Off Time % change from control” value is given as −59%, the “Drop-Off Time (sec) Mean ± S.E.M.” value is listed as 55.8 ± 20.6^d sec and the “Number of Rats Falling” value was determined as 9. In addition, in the data set with rat (setting [5]), the “Drop-Off Time % change from control” value is −88%, the “Drop-Off Time (sec) Mean ± S.E.M.” value is listed as 16.3 ± 6.4^f sec and the “Number of Rats Falling” value is 10+ ^e. Moreover, the “rotarod performance in the rat” value with rat (i.p. 60 minutes before test, isovaleramide 128, 256 and 512 mg/kg) was “dose-dependently decreased rotarod performance”.

`CCN(CC)C(=O)CC(C)C` [N,N-Diethyl isovaleramide]: the CNS properties result in data set [2] is reported as “CNS stimulant (convulsant) properties”.

For `CC(C)CC(=O)NCC(N)=O` [N-(2-acetamido)isovaleramide], the “Number Protected of Four Mice Tested at 30 minutes” value in data set [3] (Table 4, 30 mg/kg oral) turned out to be 0; in data set [3] (Table 4, 100 mg/kg oral) it was 0; in data set [3] (Table 4, 300 mg/kg oral), 0; in data set [3] (Table 4, 1000 mg/kg oral) it was 3. Further, the “Number Protected of Four Mice Tested at 120 minutes” value is on record as 0 in data set [3] (Table 4, 30 mg/kg oral); 0 in data set [3] (Table 4, 100 mg/kg oral); 0 in data set [3] (Table 4, 300 mg/kg oral); 4 in data set [3] (Table 4, 1000 mg/kg oral). In addition, the “anticonvulsant activity when administered orally” value in data set [3] is reported as “displayed anticonvulsant activity when administered orally”. Also, the “Number Showing Toxicity of Four Mice Tested at 30 minutes” value came out at 0 in the data set on Frings mouse (30 mg/kg oral), 0 in the data set on Frings mouse (100 mg/kg oral), 0 with Frings mouse (300 mg/kg oral) and 1 in the data set with Frings mouse (1000 mg/kg oral). Also, the “Number Showing Toxicity of Four Mice Tested at 120 minutes” value with Frings mouse (30 mg/kg oral), in the data set with Frings mouse (100 mg/kg oral), in the data set with Frings mouse (300 mg/kg oral) and in the data set on Frings mouse (1000 mg/kg oral) was 0 in each case.

For `CC(C)C(C)C(N)=O` (stereo not shown) [2-methylisovaleramide], the “Number Protected of Four Mice Tested at 30 minutes” value was found to be 0 in data set [3] (Table 5, 30 mg/kg oral); 1 in data set [3] (Table 5, 100 mg/kg oral); 4 in data set [3] (Table 5, 300 mg/kg oral). Besides, the “Number Protected of Four Mice Tested at 120 minutes” value in data set [3] (Table 5, 30 mg/kg oral) was determined as 0; in data set [3] (Table 5, 100 mg/kg oral), 0; in data set [3] (Table 5, 300 mg/kg oral) it was 1. In data set [3], the “anticonvulsant activity when administered orally” value is listed as “displayed anticonvulsant activity when administered orally”. For the same compound, the “Number Showing Toxicity of Eight Mice Tested at 30 minutes” value is recorded as 0 in the data set with Frings mouse (30 mg/kg oral), 0 with Frings mouse (100 mg/kg oral) and 2^a with Frings mouse (300 mg/kg oral). Also, the “Number Showing Toxicity of Eight Mice Tested at 120 minutes” value in the data set on Frings mouse (30 mg/kg oral), with Frings mouse (100 mg/kg oral) and in the data set with Frings mouse (300 mg/kg oral) was 0 each time. In addition, the “signs of toxicity in the animals counted as toxic” value in the data set on Frings mouse (Table 5 footnote, 300 mg/kg oral, 30 minutes) is recorded as “^ano definitive signs of toxicity such as sedation or ataxia, animals just fell off”.
